The values below come from patent US20100197724A1, “6.5 -PYRROLOPIPERIDINE TACHYKININ RECEPTOR ANTAGONISTS” (priority 2007, published 2010).

This experiment addresses T1, human neurokinin-1 receptor (NK1R) (Homo sapiens, UniProt P25103).
T1 construct: expressed in transfected cells
Put plainly: 125I-substance P binding assay of human NK1R expressed in COS or CHO cells. The settings on record: competition with 125I-substance P. As to the method:
Receptor Expression in COS: To express the cloned human neurokinin-1 receptor (NK1R) transiently in COS, the cDNA for the human NK1R was cloned into the expression vector pCDM9 which was derived from pCDM8 (INVITROGEN) by inserting the ampicillin resistance gene (nucleotide 1973 to 2964 from BLUESCRIPT SK+) into the Sac II site. Transfection of 20 ug of the plasmid DNA into 10 million COS cells was achieved by electroporation in 800 ul of transfection buffer (135 mM NaCl, 1.2 mM CaCl2, 1.2 mM MgCl2, 2.4 mM K2HPO4, 0.6 mM KH2PO4, 10 mM glucose, 10 mM HEPES pH 7.4) at 260 V and 950 uF using the IBI GENEZAPPER (IBI, New Haven, Conn.). The cells were incubated in 10% fetal calf serum, 2 mM glutamine, 100 U/ml penicillin-streptomycin, and 90% DMEM media (GIBCO, Grand Island, N.Y.) in 5% CO2 at 37° C. for three days before the binding assay.
Stable Expression in CHO: To establish a stable cell line expressing the cloned human NK1R, the cDNA was subcloned into the vector pRcCMV (INVITROGEN). Transfection of 20 ug of the plasmid DNA into CHO cells was achieved by electroporation in 800 ul of transfection buffer supplemented with 0.625 mg/ml Herring sperm DNA at 300 V and 950 uF using the IBI GENEZAPPER (IBI). The transfected cells were incubated in CHO media [10% fetal calf serum, 100 U/ml penicillin-streptomycin, 2 mM glutamine, 1/500 hypoxanthine-thymidine (ATCC), 90% IMDM media (JRH BIOSCIENCES, Lenexa, Kans.), 0.7 mg/ml G418 (GIBCO)] in 5% CO2 at 37° C. until colonies were visible. Each colony was separated and propagated. The cell clone with the highest number of human NK1R was selected for subsequent applications such as drug screening.
Assay Protocol using COS or CHO: The binding assay of human NK1R expressed in either COS or CHO cells is based on the use of ^125I-substance P (^125I-SP, from DU PONT, Boston, Mass.) as a radioactively labeled ligand which competes with unlabeled substance P or any other ligand for binding to the human NK1R. Monolayer cell cultures of COS or CHO were dissociated by the non-enzymatic solution (SPECIALTY MEDIA, Lavallette, N.J.) and resuspended in appropriate volume of the binding buffer (50 mM Tris pH 7.5, 5 mM MnCl2, 150 mM NaCl, 0.04 mg/ml bacitracin, 0.004 mg/ml leupeptin, 0.2 mg/ml BSA, 0.01 mM phosphoramidon) such that 200 ul of the cell suspension would give rise to about 10,000 cpm of specific ^125I-SP binding (approximately 50,000 to 200,000 cells). In the binding assay, 200 ul of cells were added to a tube containing 20 ul of 1.5 to 2.5 nM of ^125I-SP and 20 ul of unlabeled substance P or any other test compound. The tubes were incubated at 4° C. or at room temperature for 1 hour with gentle shaking. The bound radioactivity was separated from unbound radioactivity by GF/C filter (BRANDEL, Gaithersburg, Md.) which was pre-wetted with 0.1% polyethylenimine. The filter was washed with 3 ml of wash buffer (50 mM Tris pH 7.5, 5 mM MnCl2, 150 mM NaCl) three times and its radioactivity was determined by gamma counter. The activation of phospholipase C by NK1R may also be measured in CHO cells expressing the human NK1R by determining the accumulation of inositol monophosphate which is a degradation product of IP3. CHO cells are seeded in 12-well plate at 250,000 cells per well. After incubating in CHO media for 4 days, cells are loaded with 0.025 uCi/ml of ^3H-myoinositol by overnight incubation. The extracellular radioactivity is removed by washing with phosphate buffered saline. LiCl is added to the well at final concentration of 0.1 mM with or without the test compound, and incubation is continued at 37° C. for […]. Substance P is added to the well at final concentration of 0.3 nM to activate the human NK1R. After 30 min of incubation at 37° C., the media is removed and 0.1 N HCl is added. Each well is sonicated at 4° C. and extracted with CHCl3/methanol (1:1). The aqueous phase is applied to a 1 ml Dowex AG 1X8 ion exchange column. […]

T1 sequence (P25103 whole entry): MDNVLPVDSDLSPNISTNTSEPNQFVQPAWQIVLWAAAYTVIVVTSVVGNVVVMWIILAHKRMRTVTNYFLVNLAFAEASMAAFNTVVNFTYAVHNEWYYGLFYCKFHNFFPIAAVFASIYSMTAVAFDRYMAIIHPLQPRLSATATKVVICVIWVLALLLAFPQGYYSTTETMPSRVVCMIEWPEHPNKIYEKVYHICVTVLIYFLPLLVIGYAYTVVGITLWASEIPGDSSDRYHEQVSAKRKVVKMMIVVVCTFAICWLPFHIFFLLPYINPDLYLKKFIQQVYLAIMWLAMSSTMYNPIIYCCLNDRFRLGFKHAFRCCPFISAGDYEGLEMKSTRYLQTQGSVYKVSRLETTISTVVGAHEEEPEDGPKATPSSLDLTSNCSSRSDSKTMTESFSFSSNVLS

As a reminder, the IC50 is the concentration at which inhibition is half-maximal. `Cc1ccccc1[C@H]1[C@@H]2CN(C(=O)C3CCC(=O)N(C)C3)C[C@H]2CCN1C(=O)N(C)[C@H](C)c1cc(C(F)(F)F)cc(C(F)(F)F)c1` (stereo partly drawn) [Example 19, (3aS,4R,7aS)-N-{(1R)-1-[3,5-bis(trifluoromethyl)phenyl]ethyl}-N-methyl-2-[(1-methyl-6-oxopiperidin-3-yl)carbonyl]-4-(2-methylphenyl)octahydro-5H-pyrrolo[3,4-c]pyridine-5-carboxamide] registered a half-maximal inhibitory concentration (IC50) of 90 pM.

On to `Cc1ccccc1[C@H]1[C@@H]2CN(C(=O)C3CCN(C(N)=O)CC3)C[C@H]2CCN1C(=O)N(C)[C@H](C)c1cc(C(F)(F)F)cc(C(F)(F)F)c1` [Example 20, (3aS,4R,7aS)-2-{[1-(aminocarbonyl)piperidin-4-yl]carbonyl}-N-{(1R)-1-[3,5-bis(trifluoromethyl)phenyl]ethyl}-N-methyl-4-(2-methylphenyl)octahydro-5H-pyrrolo[3,4-c]pyridine-5-carboxamide], for which the concentration for half-maximal inhibition (IC50) stood at 185 pM.

Consider `Cc1ccccc1[C@H]1[C@@H]2CN(C3CCOCC3)C[C@H]2CCN1C(=O)N(C)[C@H](C)c1cc(C(F)(F)F)cc(C(F)(F)F)c1` [Example 21, (3aS,4R,7aS)-N-{(1R)-1-[3,5-bis(trifluoromethyl)phenyl]ethyl}-N-methyl-4-(2-methylphenyl)-2-(tetrahydro-2H-pyran-4-yl)octahydro-5H-pyrrolo[3,4-c]pyridine-5-carboxamide], for which the IC50 turned out to be 85 pM.

In the case of `CC(=O)N1CCC(N2C[C@H]3CCN(C(=O)N(C)[C@H](C)c4cc(C(F)(F)F)cc(C(F)(F)F)c4)[C@@H](c4ccccc4C)[C@@H]3C2)CC1` [Example 22, (3aS,4R,7aS)-2-(1-acetylpiperidin-4-yl)-N-{(1R)-1-[3,5-bis(trifluoromethyl)phenyl]ethyl}-N-methyl-4-(2-methylphenyl)octahydro-5H-pyrrolo[3,4-c]pyridine-5-carboxamide], the IC50 came out at 89 pM.

`Cc1ccccc1[C@H]1C2CN(CC(C)(C)CO)C[C@H]2CCN1C(=O)N(C)[C@H](C)c1cc(C(F)(F)F)cc(C(F)(F)F)c1` (stereo partly drawn) [Example 23] displayed an IC50 of 94 pM.

Regarding `Cc1cc(F)ccc1[C@H]1[C@@H]2CN(Cc3ccccc3)C[C@H]2CCN1C(=O)N(C)[C@H](C)c1cc(C(F)(F)F)cc(C(F)(F)F)c1` [Example 25, (3aS,4R,7aS)-2-benzyl-N-{(1R)-1-[3,5-bis(trifluoromethyl)phenyl]ethyl}-4-(4-fluoro-2-methylphenyl)-N-methyloctahydro-5H-pyrrolo[3,4-c]pyridine-5-carboxamide], the IC50 turned out to be 52 pM.

Regarding `Cc1cc(F)ccc1[C@H]1C2CNC[C@H]2CCN1C(=O)N(C)[C@H](C)c1cc(C(F)(F)F)cc(C(F)(F)F)c1` (stereo partly drawn) [Example 26, (3aS,4R,7aS)-N-{(1R)-1-[3,5-bistrifluoromethyl)phenyl]ethyl}-4-(4-fluoro-2-methylphenyl-N-methyloctahydro-5H-pyrrolo[3,4-c]pyridine-5-carboxamide], the half-inhibitory concentration (IC50) was 31 pM.

Regarding `Cc1cc(F)ccc1[C@H]1[C@@H]2CN(C3=NC(=O)CO3)C[C@H]2CCN1C(=O)N(C)[C@H](C)c1cc(C(F)(F)F)cc(C(F)(F)F)c1` [Example 28, (3aS,4R,7aS)-N-{(1R)-1-[3,5-bis(trifluoromethyl)phenyl]ethyl}-4-(4-fluoro-2-methylphenyl)-N-methyl-2-(4-oxo-4,5-dihydro-1,3-oxazol-2-yl)octahydro-5H-pyrrolo[3,4-c]pyridine-5-carboxamide], the IC50 stood at 77 pM.

In turn, `Cc1cc(F)ccc1[C@H]1C2CN(C3=CC(=O)OC3)C[C@H]2CCN1C(=O)N(C)[C@H](C)c1cc(C(F)(F)F)cc(C(F)(F)F)c1` (stereo partly drawn) [Example 29] gave an IC50 of 115 pM.

`Cc1cc(F)ccc1[C@H]1[C@@H]2CN(C(=O)[C@H](C)O)C[C@H]2CCN1C(=O)N(C)[C@H](C)c1cc(C(F)(F)F)cc(C(F)(F)F)c1` [Example 30, (3aS,4R,7aS)-N-{(1R)-1-[3,5-bis(trifluoromethyl)phenyl]ethyl}-4-(4-fluoro-2-methylphenyl)-2-[(2S)-2-hydroxypropanoyl]-N-methyloctahydro-5H-pyrrolo[3,4-c]pyridine-5-carboxamide] yielded a half-inhibitory concentration (IC50) of 72 pM.

For `Cc1cc(F)ccc1[C@H]1[C@@H]2CN(C(=O)[C@@H](C)O)C[C@H]2CCN1C(=O)N(C)[C@H](C)c1cc(C(F)(F)F)cc(C(F)(F)F)c1` [Example 31, (3aS,4R,7aS)-N-{(1R)-1-[3,5-bis(trifluoromethyl)phenyl]ethyl}-4-(4-fluoro-2-methylphenyl)-2-[(2R)-2-hydroxypropanoyl]-N-methyloctahydro-5H-pyrrolo[3,4-c]pyridine-5-carboxamide], the IC50 was 57 pM.

`Cc1cc(F)ccc1[C@H]1[C@@H]2CN(C(=O)C(C)(C)C)C[C@H]2CCN1C(=O)N(C)[C@H](C)c1cc(C(F)(F)F)cc(C(F)(F)F)c1` [Example 33, (3aS,4R,7aS)-N-{(1R)-1-[3,5-bis(trifluoromethyl)phenyl]ethyl}-2-(2,2-dimethylpropanoyl)-4-(4-fluoro-2-methylphenyl)-N-methyloctahydro-5H-pyrrolo[3,4-c]pyridine-5-carboxamide] displayed an IC50 of 66 pM.

`Cc1cc(F)ccc1[C@H]1C2CN(C(=O)C3CCOCC3)C[C@H]2CCN1C(=O)N(C)[C@H](C)c1cc(C(F)(F)F)cc(C(F)(F)F)c1` (stereo partly drawn) [Example 34] returned an IC50 of 48 pM.

In turn, `Cc1cc(F)ccc1[C@H]1[C@@H]2CN(C3CCOCC3)C[C@H]2CCN1C(=O)N(C)[C@H](C)c1cc(C(F)(F)F)cc(C(F)(F)F)c1` [Example 35, (3aS,4R,7aS)-N-{(1R)-1-[3,5-bis(trifluoromethyl)phenyl]ethyl}-4-(4-fluoro-2-methylphenyl)-N-methyl-2-(tetrahydro-2H-pyran-4-yl)octahydro-5H-pyrrolo[3,4-c]pyridine-5-carboxamide] gave an IC50 of 111 pM.

Consider `CC(=O)N1CCC(N2C[C@H]3CCN(C(=O)N(C)[C@H](C)c4cc(C(F)(F)F)cc(C(F)(F)F)c4)[C@@H](c4ccc(F)cc4C)[C@@H]3C2)CC1` [Example 36, (3aS,4R,7aS)-2-(1-acetylpiperidin-4-yl)-N-{(1R)-1-[3,5-bis(trifluoromethyl)phenyl]ethyl}-4-(4-fluoro-2-methylphenyl)-N-methyloctahydro-5H-pyrrolo[3,4-c]pyridine-5-carboxamide], for which the IC50 was determined as 108 pM.
